Results: patent US20140329766A1, “Prophylactic Compositions for Management of Microbial Infections in Patients with Brain Injury” (UTI LIMITED PARTNERSHIP, priority 2011, published 2014)
“Also recorded” adds a separate entry of the source.

Key:
[1] = system: post-stroke infections; assay: Bacteriological analysis (CFU) of blood, lungs, liver and spleen after MCAO; type: in vivo, mice; conditions: post-ischemic mice 24 h after MCAO; α-GalCer 2 μg/mouse i.v. 2 h after MCAO (FIGS. 44A-44D)
Procedure: Mice underwent the mid-cerebral artery occlusion (MCAO) model of cerebral ischemia-reperfusion injury as previously described (Connolly, Jr. et al., 1996; Wong et al., 2008). Male mice of 8-12 weeks old were anesthetized by intraperitoneal injection of a mixture of 10 mg/kg xylazine hydrochloride (MTC Pharmaceuticals, Cambridge, ON) and 200 mg/kg ketamine hydrochloride (Rogar/STB, London, ON). Body temperature was maintained at 37° C. using a heating pad and temperature regulator with rectal probe. Mice were randomly divided into 2 groups: (i) sham-operated, and (ii) MCAO-operated. All surgical instruments were sterilized before the surgery. Before any incision, the area was swabbed with ethanol. To induce MCAO, a 10-mm incision was made on the right-hand side of the neck. Then, the common carotid artery, external carotid artery, and internal carotid artery were dissected free. The external carotid artery was further dissected distally, then coagulated and cut to serve as a stump. After applying temporary clamps at the common carotid artery and internal carotid artery, a monofilament with a silicon coating diameter of 0.21-0.23 mm (Doccol Corporation, Redlands, Calif., USA) was inserted into the stump of the external carotid artery. The monofilament then advanced a defined distance (12 mm) so that the distal end of the monofilament came to rest across the origin of the MCA. The stump of external carotid artery was tied off. The wound on the neck of the mouse was sutured and the mouse was then transferred onto a heat pad to maintain its body temperature at 37° C. After 30 mins of occlusion, the monofilament was withdrawn to allow reperfusion to occur. The animal then recovered from the anaesthesia. Rehydration of the mice was performed every 4 h with a subcutaneous injection of electrolytes and glucose. Food pellets softened with water were placed in the cage after surgery as the mice recovered, and access to water was provided. Sham-operated animals were subjected to the initial anaesthetic and neck incision only. The animals were then allowed to recover from anaesthetic. All animals were put onto a 37° C. heat pad, post-surgery, to recover from anaesthesia until euthanized.
(§1) The anaesthetized mice from Example 1 were washed with 70% ethanol under sterile conditions. Blood was collected by cardiac puncture. The lungs, liver and spleen were removed after thoracotomy and homogenized. For determination of colony forming units (CFU), 10 μl of tissue homogenate or blood was serially diluted, plated onto brain heart infusion (BHI) agar plates supplemented with 5% sheep blood (Daylnn Biologicals, Alberta, Canada), incubated at 37° C. for 18 h, and bacterial colonies were counted.
as §1, with “Example 7” for “Example 1”

[2] = system: tumors; conditions: cited from earlier work

In the case of `CCCCCCCCCCCCCCCCCCCCCCCCCCC(=O)N[C@@H](COC1OC(CO)C(O)C(O)C1O)[C@H](O)[C@H](O)CCCCCCCCCCCCCC` (stereo partly drawn) [α-GalCer, α-galactosylceramide], the “infections (bacterial loads in peripheral blood, lungs, livers, spleens)” value [1] is listed as “reduced; also recorded: suppressed the occurrence of microbial infections”, the growth of tumors ([2]; liver metastatic models) is listed as “suppressed” and the “survival term of the tumor-bearing mice” value ([2]; liver metastatic models) is listed as “prolonged”. The anti-tumor activity ([2]; murine in vivo experiments incl. subcutaneous implanted model and liver and lung metastatic models) was “potent anti-tumor activity”.
